Molecular target: PAR4 (Homo sapiens (Human), UniProt Q96RI0)
Test: FLIPR assay in PAR4-expressing HEK293 cells (PAR4 antagonist activity, calcium mobilization)
Type: cell-based
Details: FLIPR assay as described in Example A
Excerpt: The FLIPR assay is an exemplary in vitro assay for measuring the activity of the PAR4 antagonists of the present invention. In this assay, intracellular calcium mobilization is induced in PAR4 expressing cells by a PAR4 agonist and calcium mobilization is monitored. See, e.g., Example A.
HEK293 cells stably expressing PAR4 were generated by a standard method of transfection of human […] cDNA expression vector or by RAGE technology from Athersys Inc. (Cleveland, Ohio) and selected based on PAR4 protein expression of mRNA expression. […] These cells express endogenous PAR1 and can elicit calcium signal upon stimulation with PAR1 agonist peptide.
Counter screens for agonist activity and PAR1 antagonist activity were also performed. Briefly, HEK293 EBNA PAR4 clone 20664.1J cells were plated 24 hrs. prior to experiment in 384 well, Poly-D-Lysine coated, black, clear bottom plates (Greiner Bio-One, Monroe, N.C.). Cells were plated at 20,000 cells/well in 20 μl growth medium and incubated at 37° C. with 5% CO2 overnight. At time of assay, media was replaced with 40 μl 1× Hank's Buffered Saline Solution (HBSS) (with 10 mM HEPES) and 20 μl test compound also diluted in 1×HBSS buffer was added at various concentrations and 0.67% DMSO final concentration on the FDSS for agonist measurement. The cells were then incubated for 30 minutes at room temperature followed by addition of 20 μl of agonist peptide for antagonist measurement on the FDSS.
As indicated above, the FLIPR assay, an in vitro assay, measures the PAR4 antagonist activity of compounds tested as described in Example A.

Sequence of PAR4 (Q96RI0 18-385): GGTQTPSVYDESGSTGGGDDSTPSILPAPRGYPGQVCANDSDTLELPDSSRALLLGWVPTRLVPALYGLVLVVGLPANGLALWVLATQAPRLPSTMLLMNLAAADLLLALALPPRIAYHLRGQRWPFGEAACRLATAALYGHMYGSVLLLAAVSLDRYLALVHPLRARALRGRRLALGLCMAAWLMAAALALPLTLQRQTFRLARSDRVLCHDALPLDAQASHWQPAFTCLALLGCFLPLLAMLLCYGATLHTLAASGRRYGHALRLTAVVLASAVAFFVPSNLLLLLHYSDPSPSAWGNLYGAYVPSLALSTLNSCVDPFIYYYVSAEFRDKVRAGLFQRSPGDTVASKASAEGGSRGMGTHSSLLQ

SMILES	IC50
COc1cc(OC[C@@H]2COC(C)(C)O2)c2cc(-c3cn4nc(OC)sc4n3)oc2c1 [Example 339, (R)-6-(4-((2,2-Dimethyl-1,3-dioxolan-4-yl)methoxy)-6-methoxybenzofuran-2-yl)-2-methoxyimidazo[2,1-b][1,3,4]thiadiazole]	0.87 nM
COc1cc(OCc2cccc(OCc3ccccc3OC)c2)c2cc(-c3cn4nc(OC)sc4n3)oc2c1 [Example 309]	1.22 nM
COc1cc(OCc2cccc(OCc3ccccc3C(F)(F)F)c2)c2cc(-c3cn4nc(OC)sc4n3)oc2c1 [Example 326]	3.36 nM
COc1nn2cc(-c3cc4c(OC)ccc(OC)c4o3)nc2s1 [Example 103]	10.7 nM
COc1cc2oc(-c3cn4nc([C@H](C)F)sc4n3)cc2cc1Cl [270B]	3.37 nM
COc1ccc2oc(-c3cn4nc(SC)sc4n3)c(C)c2c1 [Example 24]	696 nM
C[C@@H](F)c1nn2cc(-c3cc4c(Cl)cc(Cl)cc4o3)nc2s1 [Example 213A, (R)-6-(4,6-Dichlorobenzofuran-2-yl)-2-(1-fluoroethyl)imidazo[2,1-b][1,3,4]thiadiazole]	333 nM
COc1nn2cc(-c3cc4c(Cl)nccc4o3)nc2s1 [Example 223, 4-Chloro-2-(2-methoxyimidazo[2,1-b][1,3,4]thiadiazol-6-yl)furo[3,2-c]pyridine]	21.6 nM
CC(F)(F)c1nn2cc(-c3cc4cccc(OC(F)(F)F)c4o3)nc2s1 [Example 240]	671 nM
CNc1nn2cc(-c3cc4ccccc4o3)nc2s1 [Example 69]	407 nM
COc1cc(OCc2cccc(OCc3cncnc3)c2)c2cc(-c3cn4nc(OC)sc4n3)oc2c1 [Example 329]	71.6 nM
COc1ccc2c(C)c(-c3cn4nc(SC)sc4n3)oc2c1 [Example 106]	13.9 nM
COc1cc(OCc2cccc(OCc3cccnc3C)c2)c2cc(-c3cn4nc(OC)sc4n3)oc2c1 [Example 308]	187 nM
COc1cc2oc(-c3cn4nc(SC)sc4n3)cc2cc1Cl [Example 202, 6-(5-Chloro-6-methoxybenzofuran-2-yl)-2-(methylthio)imidazo[2,1-b][1,3,4]thiadiazole]	3.15 nM
COc1cc(OCc2cccc(OCc3cc(OC)c(OC)c(OC)c3)c2)c2cc(-c3cn4nc(OC)sc4n3)oc2c1 [Example 380]	1.11 nM
COc1nn2cc(-c3nc4cc(OC(F)(F)F)ccc4o3)nc2s1 [Example 140]	68.9 nM
COc1nn2cc(-c3cc4c(F)cccc4o3)nc2s1 [Example 279]	3.46 nM
CCc1nn2cc(-c3nc4ccc(OCCC(C)C)cc4o3)nc2s1 [Example 77]	1370 nM
COc1nn2cc(-c3cc4cc([N+](=O)[O-])ccc4o3)nc2s1 [Example 100]	71.4 nM
CCc1nn2cc(-c3cc4ccccc4o3)nc2s1 [Example 47]	68 nM

SMILES	IC50
COc1nn2cc(-c3cc4cc(Cl)ccc4o3)nc2s1 [Example 91]	19.1 nM
CCc1nn2cc(-c3cc4cccc(OCCCC#N)c4o3)nc2s1 [Example 66]	2620 nM
COc1nn2cc(-c3cc4cccc(OC)c4o3)nc2s1 [Example 35]	7.65 nM
CCCCOc1ccc2nc(-c3cn4nc(CC)sc4n3)oc2c1 [Example 79]	801 nM
CCOc1cc(OC)cc2oc(-c3cn4nc(Br)sc4n3)cc12 [Example 267]	7.53 nM
COc1cc(OCc2cccc(OCc3ccc(OCc4ccccc4)c(OC)c3)c2)c2cc(-c3cn4nc(OC)sc4n3)oc2c1 [Example 357]	4.92 nM
COc1cc(OCc2cccc(OCc3cc(C(F)(F)F)ccc3F)c2)c2cc(-c3cn4nc(OC)sc4n3)oc2c1 [Example 321]	6.73 nM
CCc1nn2cc(-c3cc4cccc(O)c4o3)nc2s1 [Example 59]	288 nM
COc1cc(OCc2cccc(OCc3ccc(OC)c(OC)c3Cl)c2)c2cc(-c3cn4nc(OC)sc4n3)oc2c1 [Example 361]	1.35 nM
COc1cc(OCc2cccc(OCc3cc(F)c(F)c(F)c3)c2)c2cc(-c3cn4nc(OC)sc4n3)oc2c1 [Example 328]	4.5 nM
Cc1cc2oc(-c3cn4nc(C(C)(F)F)sc4n3)cc2cc1Cl [Example 274]	1970 nM
COc1cc(OC)c2nc(-c3cn4nc(SC)sc4n3)sc2c1 [Example 189]	2200 nM
CC(F)c1nn2cc(-c3nc4ccccc4s3)nc2s1 (stereo not shown) [Example 186, 2-(2-(1-Fluoroethyl)imidazo[2,1-b][1,3,4]thiadiazol-6-yl)benzo[d]thiazole]	252 nM
COc1nn2cc(-c3cc4cccc(F)c4o3)nc2s1 [Example 263]	20.7 nM
COc1cc(OCc2cccc(OCc3cc(C(F)(F)F)ccc3C)c2)c2cc(-c3cn4nc(OC)sc4n3)oc2c1 [Example 396]	4.51 nM
COc1ccc2cc(-c3cn4nc(Br)sc4n3)oc2c1 [Example 260]	4.45 nM
COc1cc(OCc2cccc(OCc3ccc(F)cc3C(F)(F)F)c2)c2cc(-c3cn4nc(OC)sc4n3)oc2c1 [Example 385]	3.13 nM
FC(F)C(F)(F)c1nn2cc(-c3cc4ccccc4o3)nc2s1 [Example 208, 6-(Benzofuran-2-yl)-2-(1,1,2,2-tetrafluoroethyl)imidazo[2,1-b][1,3,4]thiadiazole]	457 nM
COc1cc(OCc2cccc(OCc3cccc(OCc4cccc(Cl)c4)c3)c2)c2cc(-c3cn4nc(OC)sc4n3)oc2c1 [Example 375]	260 nM

Next, values leading:

IC50	SMILES
10.6 nM	COc1cc(OCc2ccccc2)c2nc(-c3cn4nc(SC)sc4n3)oc2c1 [Example 119, 4-(Benzyloxy)-6-methoxy-2-(2-(methylthio)imidazo[2,1-b][1,3,4]thiadiazol-6-yl)benzo[d]oxazole]
571 nM	CSc1nn2cc(-c3nc4c(OCc5cccnc5)cccc4o3)nc2s1 [Example 154]
14 nM	CSc1nn2cc(-c3cc4ccccc4o3)nc2s1 [Example 1, 6-(Benzofuran-2-yl)-2-(methylthio)imidazo[2,1-b][1,3,4]thiadiazole]
15.2 nM	CSc1nn2cc(-c3nc4cc(C)ccc4o3)nc2s1 [Example 113]
3480 nM	CC(F)(F)c1nn2cc(-c3nc4c(N)cccc4o3)nc2s1 [Example 124, 2-(2-(1,1-Difluoroethyl)imidazo[2,1-b][1,3,4]thiadiazol-6-yl)-4-aminobenzo[d]oxazole]
621 nM	CSc1nn2cc(-c3nc4ccc(OCc5cccc(C#N)c5)cc4o3)nc2s1 [Example 150]
87.2 nM	CSc1nn2cc(-c3nc4cc(C(C)(C)C)ccc4o3)nc2s1 [Example 132]
139 nM	CSc1nn2cc(-c3nc4c(OCc5ccccn5)cccc4o3)nc2s1 [Example 166]
2360 nM	CSc1nn2cc(-c3nc4c(OC[C@@H]5CCCN5C(=O)[C@H](NC(=O)OC(C)(C)C)c5ccccc5)cccc4o3)nc2s1 [Example 334, tert-Butyl ((R)-2-((S)-2-(((2-(2-(methylthio)imidazo[2,1-b][1,3,4]thiadiazol-6-yl)benzo[d]oxazol-4-yl)oxy)methyl)pyrrolidin-1-yl)-2-oxo-1-phenylethyl)carbamate]
294 nM	CCc1nn2cc(-c3nc4ccc(OC5CCC5)cc4o3)nc2s1 [Example 75]
224 nM	CSc1nn2cc(-c3nc4c(OCc5ccccc5)cccc4o3)nc2s1 [Example 148]
701 nM	CSc1nn2cc(-c3nc4ccc(N)cc4o3)nc2s1 [Example 176]
116 nM	COc1ccc(COc2ccc3nc(-c4cn5nc(SC)sc5n4)oc3c2)cc1 [Example 170]
4.53 nM	CCc1cc(OCc2cccc(OCc3ccccc3)c2)c2cc(-c3cn4nc(OC)sc4n3)oc2c1 [Example 411, 6-(4-((3-(Benzyloxy)benzyl)oxy)-6-ethylbenzofuran-2-yl)-2-methoxyimidazo[2,1-b][1,3,4]thiadiazole]
69.3 nM	CCOc1cccc2oc(-c3cn4nc(SC)sc4n3)nc12 [Example 158]
164 nM	COc1cc(OCc2cccc(OCc3ccc(OCc4ccccc4)cc3)c2)c2cc(-c3cn4nc(OC)sc4n3)oc2c1 [Example 366]
537 nM	CSc1nn2cc(-c3nc4c(OC[C@H]5CCCN5C(=O)[C@H](NC(=O)c5ccccc5)c5ccccc5)cccc4o3)nc2s1 [Example 335, N—((R)-2-((R)-2-(((2-(2-(Methylthio)imidazo[2,1-b][1,3,4]thiadiazol-6-yl)benzo[d]oxazol-4-yl)oxy)methyl)pyrrolidin-1-yl)-2-oxo-1-phenylethyl)benzamide]
1.82 nM	COc1nn2cc(-c3cc4c(OCc5cccc(OCc6ccccc6)c5)cccc4o3)nc2s1 [Example 413, 6-(4-((3-(Benzyloxy)benzyl)oxy)benzofuran-2-yl)-2-methoxyimidazo[2,1-b][1,3,4]thiadiazole]
2300 nM	CSc1nn2cc(-c3cc4cc(OCc5ccccc5)ccc4o3)nc2s1 [Example 230]
3.45 nM	COc1cc(OCc2cccc(OCc3cccc4ccccc34)c2)c2cc(-c3cn4nc(OC)sc4n3)oc2c1 [Example 310]
267 nM	CC(F)(F)c1nn2cc(-c3cc4c(OCc5ccccc5)cccc4o3)nc2s1 [Example 250]
140 nM	COc1nn2cc(-c3nc4ccccc4o3)nc2s1 [Example 111, 2-(2-Methoxyimidazo[2,1-b][1,3,4]thiadiazol-6-yl)benzo[d]oxazole]

Reference: patent publication US9862730B2, “Imidazothiadiazole derivatives as protease activated receptor 4 (PAR4) inhibitors for treating platelet aggregation” (BRISTOL-MYERS SQUIBB COMPANY, priority 2012, dated 2018)
